Source: ChEMBL document CHEMBL4699511, “Cedrol, a Sesquiterpene Alcohol, Enhances the Anticancer Efficacy of Temozolomide in Attenuating Drug Resistance via Regulation of the DNA Damage Response and MGMT Expression” (J Nat Prod, 2020)
Active and inactive are the calls of the source. No cut-off for these calls is given here.

What was measured:
DBTRG-05MG [1] = assay: Synergistic cytotoxicity against human DBTRG-05MG cells assessed as synergistic effect index at 112.4 uM after 48 hrs in presence of 103 uM TMZ by MTT assay; assay type: functional
DBTRG-05MG [2] = assay: Synergistic cytotoxicity against human DBTRG-05MG cells assessed as synergistic effect index at 89.9 uM after 48 hrs in presence of 309 uM TMZ by MTT assay; assay type: functional
RG2 [3] = assay: Synergistic cytotoxicity against rat RG2 cells assessed as combination index at 134.9 uM after 48 hrs in presence of 515.1 uM TMZ by MTT assay; assay type: functional
[4] = target: Serine/threonine-protein kinase AKT (Homo sapiens) (UniProt P31751+Q9Y243+P31749); assay: Inhibition of AKT phosphorylation at S473 residues in human DBTRG-05MG cells at 112.4uM after 48 hrs in presence of TMZ by Western blot analysis; assay type: cell-based
DBTRG-05MG [5] = assay: Synergistic cytotoxicity against human DBTRG-05MG cells assessed as synergistic effect index at 134.9 uM after 48 hrs in presence of 206 uM TMZ by MTT assay; assay type: functional
RG2 [6] = assay: Induction of cell cycle arrest in rat RG2 cells assessed as CyclinD1 expression at 112.4 uM after 48 hrs in presence of TMZ by Western blot analysis (reference value: 1); assay type: functional
RG2 [7] = assay: Synergistic cytotoxicity against rat RG2 cells assessed as synergistic effect index at 134.9 uM after 48 hrs in presence of 206 uM TMZ by MTT assay; assay type: functional
[8] = Synergistic cytotoxicity against rat CTX TNA2 cells assessed as synergistic effect index at 112.4 uM after 48 hrs in presence of 206 uM TMZ by MTT assay; assay type: cell-based; details: ctx tna2, 48 h
[9] = Effect of MGMT expression in rat RG2 cells at 112.4 uM after 48 hrs by Western blot analysis (reference value: 1); assay type: functional
[10] = Synergistic cytotoxicity against rat CTX TNA2 cells assessed as synergistic effect index at 134.9 uM after 48 hrs in presence of 412.1 uM TMZ by MTT assay; assay type: cell-based; details: ctx tna2, 48 h
RG2 [11] = assay: Synergistic cytotoxicity against rat RG2 cells assessed as combination index at 134.9 uM after 48 hrs in presence of 103 uM TMZ by MTT assay; assay type: functional
RG2 [12] = assay: Synergistic cytotoxicity against rat RG2 cells assessed as synergistic effect index at 89.9 uM after 48 hrs in presence of 206 uM TMZ by MTT assay; assay type: functional
RG2 [13] = assay: Induction of cell cycle arrest in rat RG2 cells assessed as accumulation at S phase at 112.4 uM after 24 hrs in presence of TMZ by propidium iodide staining based flow cytometric analysis (reference value: 20.15 +/- 2.44%); assay type: functional
DBTRG-05MG [14] = assay: Induction of apoptosis in human DBTRG-05MG cells assessed as phosphorylated caspace-3 expression at 112.4 uM after 48 hrs by Western blot analysis (reference value: 1); assay type: functional
RG2 [15] = assay: Induction of apoptosis in rat RG2 cells assessed as phosphorylated PARP expression at 112.4 uM after 48 hrs by Western blot analysis (reference value: 1); assay type: functional
DBTRG-05MG [16] = assay: Synergistic cytotoxicity against human DBTRG-05MG cells assessed as combination index at 89.9 uM after 48 hrs in presence of 206 uM TMZ by MTT assay; assay type: functional
[17] = Synergistic cytotoxicity against rat CTX TNA2 cells assessed as combination index at 112.4 uM after 48 hrs in presence of 103 uM TMZ by MTT assay; assay type: cell-based; details: ctx tna2, 48 h
RG2 [18] = assay: Induction of apoptosis in rat RG2 cells assessed as increase in apoptotic body formation at 112.4 uM after 48 hrs in presence of TMZ by TUNEL assay; assay type: functional, cell-based
DBTRG-05MG [19] = assay: Induction of cell cycle arrest in human DBTRG-05MG cells assessed as accumulation at S phase at 112.4 uM after 48 hrs by propidium iodide staining based flow cytometric analysis (reference value: 22.76 +/- 1.56%); assay type: functional
[20] = Synergistic cytotoxicity against rat CTX TNA2 cells assessed as combination index at 89.9 uM after 48 hrs in presence of 412.1 uM TMZ by MTT assay; assay type: cell-based; details: ctx tna2, 48 h
RG2 [21] = assay: Induction of apoptosis in rat RG2 cells assessed as phosphorylated caspace-3 expression at 112.4 uM after 48 hrs in presence of TMZ by Western blot analysis (reference value: 1); assay type: functional
RG2 [22] = assay: Induction of DNA damage in rat RG2 cells assessed as ATM phosphorylation at ser1981 residues at 112.4 uM after 48 hrs in presence of TMZ by Western blot analysis (reference value: 1); assay type: functional
DBTRG-05MG [23] = assay: Antitumour activity against human DBTRG-05MG cells xenografted in BALB/c nude mouse assessed as reduction in tumour growth at 75 mg/kg, sc for every 2 days for 20 days and measured every 2 days; assay type: functional, organism-based; details: time 20.0 day
DBTRG-05MG [24] = assay: Synergistic cytotoxicity against human DBTRG-05MG cells assessed as synergistic effect index at 89.9 uM after 48 hrs in presence of 515.1 uM TMZ by MTT assay; assay type: functional
DBTRG-05MG [25] = assay: Induction of DNA damage in human DBTRG-05MG cells assessed as Chk1 phosphorylation at ser345 residues at 206 uM after 48 hrs by Western blot analysis (reference value: 1); assay type: functional
DBTRG-05MG [26] = assay: Induction of apoptosis in human DBTRG-05MG cells assessed as cleaved caspace-9 expression at 206 uM after 48 hrs by Western blot analysis (reference value: 1); assay type: functional
RG2 [27] = assay: Inhibition of p38 phosphorylation at Tyr182 residues in rat RG2 cells at 206 uM after 48 hrs by Western blot analysis (reference value: 1); assay type: cell-based
RG2 [28] = assay: Induction of DNA damage in rat RG2 cells assessed as Chk2 phosphorylation at Thr68 at 206 uM after 48 hrs by Western blot analysis (reference value: 1); assay type: functional
[29] = Effect on AKT expression in rat RG2 cells at 206 uM after 48 hrs by Western blot analysis (reference value: 1); assay type: functional
RG2 [30] = assay: Induction of cell cycle arrest in rat RG2 cells assessed as CyclinB1 expression at 206 uM after 48 hrs by Western blot analysis (reference value: 1); assay type: functional
RG2 [31] = assay: Induction of apoptosis in rat RG2 cells assessed as increase in chromatin condensation at 206 uM after 48 hrs by TUNEL assay; assay type: functional, cell-based
DBTRG-05MG [32] = assay: Induction of cell cycle arrest in human DBTRG-05MG cells assessed as CyclinB1 expression at 206 uM after 48 hrs by Western blot analysis (reference value: 1); assay type: functional
DBTRG-05MG [33] = assay: Induction of cell cycle arrest in human DBTRG-05MG cells assessed as accumulation at S phase at 206 uM after 48 hrs by propidium iodide staining based flow cytometric analysis (reference value: 22.76 +/- 1.56%); assay type: functional
DBTRG-05MG [34] = assay: Induction of cell cycle arrest in human DBTRG-05MG cells assessed as accumulation at G0/G1 phase at 206 uM after 48 hrs by propidium iodide staining based flow cytometric analysis (reference value: 47.16 +/- 1.55%); assay type: functional

Sequence of Serine/threonine-protein kinase AKT (Homo sapiens) (P31749 whole entry, looked up): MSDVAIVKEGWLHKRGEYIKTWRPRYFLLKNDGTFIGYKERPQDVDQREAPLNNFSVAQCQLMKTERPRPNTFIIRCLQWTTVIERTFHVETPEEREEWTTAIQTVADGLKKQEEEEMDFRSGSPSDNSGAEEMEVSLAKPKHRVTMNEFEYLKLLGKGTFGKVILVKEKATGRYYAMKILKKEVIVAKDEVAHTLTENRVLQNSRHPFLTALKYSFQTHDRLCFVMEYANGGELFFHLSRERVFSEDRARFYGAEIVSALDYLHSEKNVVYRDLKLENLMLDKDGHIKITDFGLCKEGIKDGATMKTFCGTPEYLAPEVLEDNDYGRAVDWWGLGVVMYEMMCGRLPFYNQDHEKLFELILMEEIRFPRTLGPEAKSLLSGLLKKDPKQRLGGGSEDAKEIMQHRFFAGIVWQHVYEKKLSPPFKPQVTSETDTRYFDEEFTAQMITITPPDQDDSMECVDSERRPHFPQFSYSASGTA
Sequence of Serine/threonine-protein kinase AKT (Homo sapiens) (P31751 whole entry, looked up): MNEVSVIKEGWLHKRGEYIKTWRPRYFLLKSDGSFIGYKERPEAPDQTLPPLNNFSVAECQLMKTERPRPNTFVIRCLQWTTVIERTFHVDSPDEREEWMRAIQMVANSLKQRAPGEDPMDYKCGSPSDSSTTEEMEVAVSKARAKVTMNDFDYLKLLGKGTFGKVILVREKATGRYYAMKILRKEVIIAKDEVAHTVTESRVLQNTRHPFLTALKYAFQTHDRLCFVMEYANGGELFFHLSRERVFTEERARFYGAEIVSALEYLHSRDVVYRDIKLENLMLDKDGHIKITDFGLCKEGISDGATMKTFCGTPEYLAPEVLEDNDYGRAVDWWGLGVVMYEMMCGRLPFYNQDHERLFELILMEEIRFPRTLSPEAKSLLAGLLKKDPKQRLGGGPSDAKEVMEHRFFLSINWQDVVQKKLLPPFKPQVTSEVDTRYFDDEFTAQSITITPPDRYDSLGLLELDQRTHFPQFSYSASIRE
Sequence of Serine/threonine-protein kinase AKT (Homo sapiens) (Q9Y243 whole entry, looked up): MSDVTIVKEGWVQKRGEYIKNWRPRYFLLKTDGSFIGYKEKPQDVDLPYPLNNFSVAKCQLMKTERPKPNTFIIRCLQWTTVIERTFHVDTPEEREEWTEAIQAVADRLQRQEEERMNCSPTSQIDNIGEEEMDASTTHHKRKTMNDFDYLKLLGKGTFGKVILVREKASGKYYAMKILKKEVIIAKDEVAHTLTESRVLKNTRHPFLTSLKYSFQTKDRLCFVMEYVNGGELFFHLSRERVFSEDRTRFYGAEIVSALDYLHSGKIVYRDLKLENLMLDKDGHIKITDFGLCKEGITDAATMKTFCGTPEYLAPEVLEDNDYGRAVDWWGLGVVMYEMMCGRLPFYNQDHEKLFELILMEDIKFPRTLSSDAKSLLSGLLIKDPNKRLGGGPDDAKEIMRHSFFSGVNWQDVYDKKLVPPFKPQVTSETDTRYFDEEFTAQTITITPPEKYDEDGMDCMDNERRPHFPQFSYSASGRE

## C[C@@H]1CC[C@H]2C(C)(C)[C@H]3C[C@@]12CC[C@@]3(C)O [CEDROL]
DBTRG-05MG [1]
  Activity_index: 0.84
DBTRG-05MG [2]
  Activity_index: 0.75
RG2 [3]
  CI: 1.02
[4]
  fold change (FC): 0.5
DBTRG-05MG [5]
  Activity_index: 0.88
RG2 [6]
  fold change (FC): 0.8
RG2 [7]
  Activity_index: 0.91
[8]
  Activity_index: 0.4
[9]
  fold change (FC): 0.7
[10]
  Activity_index: 0.58
RG2 [11]
  CI: 0.83
RG2 [12]
  Activity_index: 0.69
RG2 [13]
  Activity: 11.96%
DBTRG-05MG [14]
  fold change (FC): 1.1
RG2 [15]
  fold change (FC): 0.6
DBTRG-05MG [16]
  CI: 0.74
[17]
  CI: 1.24
RG2 [18]
  Activity: Active
DBTRG-05MG [19]
  Activity: 18.04%
[20]
  CI: 1.11
RG2 [21]
  fold change (FC): 1.2
RG2 [22]
  fold change (FC): 1
DBTRG-05MG [23]
  Activity: Active
DBTRG-05MG [24]
  Activity_index: 0.77

## Cn1nnc2c(C(N)=O)ncn2c1=O [TEMOZOLOMIDE]
DBTRG-05MG [25]
  fold change (FC): 1
DBTRG-05MG [26]
  fold change (FC): 1.8
RG2 [27]
  fold change (FC): 1.3
RG2 [28]
  fold change (FC): 1.3
[29]
  fold change (FC): 0.6
RG2 [30]
  fold change (FC): 1.8
RG2 [31]
  Activity: Active
DBTRG-05MG [32]
  fold change (FC): 1.4
DBTRG-05MG [33]
  Activity: 23.42%
DBTRG-05MG [34]
  Activity: 22.95%
